The subject of series [1] is normal lung cell line MRC-5 and the normal colon CCD-18Co cell line. Briefly: Toxicity test in normal cell line (WST-8 cell viability). In kind it is cell-based. To be noted: grade evaluated in comparison with doxorubicin, MRC-5 and CCD-18Co, 0-100 μm, 7 concentrations, 72 hours. As for the experimental part: The normal lung cell line MRC-5 and the normal colon CCD-18Co cell line were furnished from Korea Cell Line Bank (KCLB, Seoul, Korea) and cultured in culture medium. In a humidified cell culture incubator containing 5% CO2 at 37° C. using DMEM, 10% culture flask, fetal bovine serum (FBS), 0.1 mM MEM non-essential amino acids (NEAA), 2 mM L-glutamine, and 1% penicillin-streptomycin were treated with trypsin every 2-3 days according to the guidelines provided by KCLB, and the cells were sub-cultured. The culture was cultured until it reached 80-90% confluence, and the cells were continuously transferred to a culture flask for a cancer cell line growth inhibition experiment. Normal cell lines (MRC-5 and CCD-18Co) were seeded in about 10000 cells per well in a 96-well plate. After 24 hours, the three compounds shown in Table 1 below were added to each well at 7 concentrations, and incubated for 72 hours. The cell viability and analysis in the normal cell line were performed in the same manner as in Test Example 1, and the results of the toxicity test (72 hours) in the normal cell line are shown in FIG. 4.

Series [2] concerns human lung cancer cell line A549, cervical cancer cell line Hela, and colorectal cancer cell line HT-29. Briefly: Cancer cell line growth inhibition test (WST-8 cell viability). In kind it is cell-based. The settings on record: grade evaluated in comparison with doxorubicin, 0-100 μm, 7 concentrations, incubated for 72 hours. On the procedure: Human lung cancer cell line A549, cervical cancer cell line Hela, and colorectal cancer cell line HT-29 were furnished from Korea Cell Line Bank (KCLB, Seoul, Korea) and cultured in culture medium. In a humidified cell culture incubator containing 5% CO2 at 37° C. using DMEM, 10% culture flask, fetal bovine serum (FBS), 0.1 mM MEM non-essential amino acids (NEAA), 2 mM L-glutamine, and 1% penicillin-streptomycin were treated with trypsin every 2-3 days according to the guidelines provided by KCLB, and the cells were sub-cultured. The culture was cultured until it reached 80-90% confluence, and the cells were continuously transferred to a culture flask for a cancer cell line growth inhibition experiment. Cancer cell lines to be tested (human lung cancer cell line A549, cervical cancer cell line Hela, and colorectal cancer cell line HT-29) were seeded in about 10000 cells per well in a 96-well plate. […] After incubation, the medium was discarded and the cell viability was measured in each well using a WST-8 cell viability assay kit (Quanti-Max™, BIOMAX) according to the procedure instructed by the manufacturer. The analysis utilized the principle that the dehydrogenase in living cells decomposes tetrazolium salts to produce formazan, through which living cells were quantitatively evaluated. […]

As to `Cl.Nc1nc2ccc(Sc3ccccc3)cc2[nH]1` [Aminophenbendazole, reference compound], the “Normal cell line growth inhibition test” value in series [1] is listed as “A A A”; in series [1] (listed as aminophenbendazole), “AAA”.

Consider `OC[C@H]1OC(Nc2nc3ccc(Sc4ccccc4)cc3[nH]2)[C@H](O)[C@@H](O)[C@@H]1O` (stereo partly shown) [Phenhendazole-glucose conjugate, 6-(phenylthio)-1H-benzoimidazol-2-aminoglucose], for which the “Cancer cell line growth inhibition test” value is “A A A” in series [2] and “AAA” in series [2] (listed as phenbendazole-glucose conjugate).

For the origin of these results see US12043644B2, “Benzimidazole derivatives, preparation method thereof and use thereof as anti-cancer agent or anti-virus agent comprising the same” (BIOMETRIX TECHNOLOGY INC, priority 2020, dated 2024).
